According to publication PMC9597602, “Metal Complexes as Antifungals? From a Crowd-Sourced Compound Library to the First In Vivo Experiments” (JACS Au, 2022):
“Also recorded” adds a separate entry of the source. Read-outs that look alike come from different tables or passages of the source.

Key:
[1] = system: Candida albicans ATCC 90028 NCCLS11; assay: Antifungal MIC assay; type: cell-based; conditions: for MIC: Candida albicans, ATCC90028, comparator antifungals, read-out: MIC* Candida albicans ATCC 90028
In short: (§1)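 Broth microdilution in YNB medium at a final density of 2.5 × 10^3 CFU/mL, from yeast grown 3 days on YPD agar at 30 °C; incubated 35 °C for 36 h without shaking. MIC is the lowest concentration giving ≥80% growth inhibition (CLSI M27 score 0–1); n = 4–8 from replicate independent runs.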

[2] = system: Cryptococcus neoformans H99 ATCC 208821 type strain; assay: Antifungal MIC assay; type: cell-based; conditions: for MIC Cryptococcus neoformans ATCC 208821 / MIC50 Cryptococcus neoformans ATCC 208821: extended panel; for MIC Cryptococcus neoformans ATCC 208821: second batch, ≥80 or ≥50% inhibition; for MIC50 Cryptococcus neoformans ATCC 208821: 50% inhibition, MIC score 2; for MIC: Cryptococcus neoformans, ATCC208821, comparator antifungals, read-out: MIC* Cryptococcus neoformans ATCC 208821
In short: as §1

[3] = system: HEK-293 human embryonic kidney cells ATCC CRL-1573; conditions: for HEK CC50: initial CO-ADD screening, 20 h; for CC50: read-out: HEK293 CC50, ranges obtained upon retesting, new batch
Method: The cells were incubated together with the compounds for 20 h at 37 °C in 5% CO2. […] Tamoxifen (Sigma T5648) was used as internal control on each plate.

human red blood cells = type: cell-based
In short: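 Washed human erythrocytes at 0.5 × 10^8 cells/mL incubated with compound, then centrifuged. Haemolysis read as supernatant OD405, normalised to untreated cells (0%) and 1% Triton X-100 (100%), with melittin as internal plate control.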

[4] = system: Candida auris CBS10913 JCM 15448; assay: Antifungal MIC assay, extended panel; type: cell-based; conditions: for MIC: read-out: MIC* Candida auris CBS10913; for MIC50 Candida auris CBS10913: 50% inhibition, MIC score 2
In short: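 Yeast strains were grown on YPD agar at 30 °C for 3 days. Five colonies were suspended to 1 × 10^6 to 5 × 10^6 CFU/mL (by OD530), diluted in YNB medium, and dispensed into compound-containing 384-well NBS plates to 2.5 × 10^3 CFU/mL in 50 μL. Covered plates were held at 35 °C for 36 h without shaking, and MIC was determined by broth dilution.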

[5] = system: Candida auris CBS12373 KCTC 17810; assay: Antifungal MIC assay, extended panel; type: cell-based; conditions: for MIC50 Candida auris CBS12373: 50% inhibition, MIC score 2; for MIC: read-out: MIC* Candida auris CBS12373
In short: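 Yeast was grown for 3 days at 30 °C on YPD agar. Five colonies were suspended to 1 × 10^6 to 5 × 10^6 CFU/mL, checked by OD530, diluted in YNB medium, and dispensed onto compound-loaded 384-well NBS plates at 2.5 × 10^3 CFU/mL in 50 μL. Plates were covered and incubated without shaking at 35 °C for 36 h to determine MIC.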

[6] = system: Candida glabrata ATCC 90030 NCCLS 84; assay: Antifungal MIC assay, extended panel; type: cell-based; conditions: extended panel, second batch; ≥80 or ≥50% inhibition
In short: as §1

[7] = system: Candida tropicalis ATCC 750; assay: Antifungal MIC assay, extended panel; type: cell-based; conditions: extended panel, second batch; ≥80 or ≥50% inhibition
In short: as §1

[8] = system: Cryptococcus deuterogattii ATCC 32609 VGII; assay: Antifungal MIC assay, extended panel; type: cell-based; conditions: extended panel, second batch; ≥80 or ≥50% inhibition
[9] = system: Cryptococcus deuterogattii CBS7750 VGII; Serotype B; assay: Antifungal MIC assay, extended panel; type: cell-based; conditions: extended panel, second batch; ≥80 or ≥50% inhibition
In short: as §1

G. mellonella larvae = assay: Galleria mellonella in vivo toxicity assay; conditions: 10 μL of the highest concentration injected, monitored 6 days
Method: Based on criteria of overall antifungal activity, cytotoxicity, and hemolysis as well as compound availability, we selected compounds Co1, Ag2, Eu1, Ir1, Pt1, Pt2, Pt4, Pt5, Au1, Au2, and Au4 to conduct a preliminary in vivo toxicity assay. […] The compounds were dissolved in DMSO and diluted to the highest possible final concentration (Table 3). The larvae were then monitored for 6 days for survival and health using the G. mellonella Health Index Scoring System.[111] […] For the other compounds, no detrimental effects could be observed in the larvae over the monitoring period. […] Nevertheless, factors such as the metabolism, excretion, and/or accumulation of the various metal complexes and their metabolites will still need to be studied more rigorously in rodent models if they are to be advanced into the preclinical pipeline.
The toxicity of compounds was tested in vivo using the G. mellonella model using our previously described methods,[61] Briefly, G. mellonella larvae were reared in a controlled environmental room at Macquarie University, Sydney, Australia, at 30 °C and 65% humidity with a 12-h light/dark cycle. Larvae (200–250 mg) were individually injected with 10 μL of chemical into the last right pro-leg using a 100 μL syringe (Hamilton Ltd.). Each compound was dissolved in DMSO at the maximum concentration given in Table 3 and also diluted in water to final concentrations of 100, 10, and 1 μM. We injected five larvae in triplicate for each of the four dilutions for each compound. Larvae injected with different dilutions of DMSO (10^–1, 10^–2, and 10^–3) were included as negative controls. Following injection, the larvae were incubated at 30 °C and monitored every 24 h for 6 days. Larval performance was assessed according to the G. mellonella Health Index Scoring System.[111] The experiments were repeated over three separate days for biological triplicates.

[10] = system: Candida glabrata ATCC 90030 NCCLS 84; assay: Antifungal MIC assay, extended panel; type: cell-based; conditions: extended panel; 50% inhibition, MIC score 2
[11] = system: Candida tropicalis ATCC 750; assay: Antifungal MIC assay, extended panel; type: cell-based; conditions: extended panel; 50% inhibition, MIC score 2
[12] = system: Cryptococcus deuterogattii CBS7750 VGII; Serotype B; assay: Antifungal MIC assay, extended panel; type: cell-based; conditions: extended panel; 50% inhibition, MIC score 2
[13] = system: Cryptococcus deuterogattii ATCC 32609 VGII; assay: Antifungal MIC assay, extended panel; type: cell-based; conditions: extended panel; 50% inhibition, MIC score 2
[14] = system: Acinetobacter baumannii ATCC 19606 type strain; assay: CO-ADD antibacterial MIC assay; type: cell-based; conditions: initial CO-ADD dose-response screening; ≥80% growth inhibition
In short: (§2)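 Mid-log cultures in cation-adjusted Mueller Hinton broth at 5 × 10^5 CFU/mL, incubated with compound 18 h at 37 °C without shaking; growth read as OD600. MIC is the lowest concentration giving ≥80% growth inhibition; two technical replicates in two independent assays (n = 4).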

[15] = system: Escherichia coli ATCC 25922 FDA control strain; assay: CO-ADD antibacterial MIC assay; type: cell-based; conditions: initial CO-ADD dose-response screening; ≥80% growth inhibition
In short: as §2

[16] = system: Pseudomonas aeruginosa ATCC 27853 QC control strain; assay: CO-ADD antibacterial MIC assay; type: cell-based; conditions: initial CO-ADD dose-response screening; ≥80% growth inhibition
In short: as §2

C. albicans (ATCC 90028) [17] = assay: Galleria mellonella infection (survival) assay; type: in vivo, Candida albicans in Galleria mellonella larvae; conditions: G. mellonella inoculated with C. albicans, 10 μL compound solution, 5 days, vs untreated control
Method: In an initial survival assay, G. mellonella larvae were inoculated with C. albicans (ATCC 90028). The larvae were then injected with 10 μL of the compound solution, and their survival was monitored for the next 5 days. Fluconazole and 10% DMSO injections were used as controls.
The globally available strains for C. albicans and C. neoformans, namely, ATCC 90028 and H99, respectively, were used to assess the antifungal potential of the panel of cobalt complex compounds in the G. mellonella insect model. Each strain was cultured on Sabouraud dextrose agar (SDA) for 24–48 h at 27 °C prior to inoculation. Yeast colonies were then suspended in a phosphate-buffered saline solution (PBS), and cells’ concentrations were adjusted using a Neubauer counting chamber to 5 × 10^7 cells for ATCC 90028 and 1 × 10^8 cells for H99. Compounds were prepared by dissolving in 100% dimethylsulfoxide (DMSO) to 4 or 10 mM depending on compound solubility before being further diluted with water to 0.4 or 1 mM for injection into larvae.
Each group of larvae was subsequently incubated at 37 °C for 2 h in 90 mm Petri dishes. After incubation, larvae were injected with 10 μL of the compound into the last right pro-leg and returned to Petri dishes to incubate at 37 °C for 5 days. In addition to the panel of metal compounds, fluconazole (FLC) was included as a positive control (1 and 0.4 mM) and reference antifungal. Larvae inoculated with just the fungal strains and the fungal strains with 10% DMSO were also included as comparison groups. Larvae injected concurrently with PBS instead of fungal inoculum and compounds were used as negative controls. All larvae were checked daily for survival.

C. albicans (ATCC 90028) [18] = assay: Galleria mellonella infection (log CFU reduction) assay; type: in vivo, Candida albicans in Galleria mellonella larvae; conditions: 1 mM, 10 μL; Pt1 19 mg/kg, Pt2 28 mg/kg, fluconazole 12 mg/kg; 24 h at 37 °C; vs 10% DMSO control
Method: To quantify the possible protective effect of Pt1 and Pt2 in G. mellonella challenged with C. albicans, we conducted a CFU reduction assay with these compounds. Briefly, G. mellonella larvae were inoculated with C. albicans (ATCC 90028) and incubated for 2 h at 37 °C. The larvae were then injected with 10 μL of the corresponding compound solution (1 mM) or control (same concentration and injection volume) and incubated for 24 h at 37 °C. The larvae were then anesthetized, macerated, and serially diluted onto SDA (Sabouraud dextrose agar) plates. After 48 h of incubation, the CFUs were counted.
A log CFU reduction assay was conducted for two compounds and two control groups. […] Fluconazole (1 mM) and 10% DMSO were used once again as the control groups. Fifteen G. mellonella larvae (200–250 mg) per test group were selected and inoculated with 10 μL of C. albicans at a concentration of 5 × 10^7 cells/mL and incubated on 90 mm Petri dishes in groups of five larvae for 2 h at 37 °C. Larvae were then subsequently injected with 10 μL of the corresponding test compound or control and returned to Petri dishes to incubate for 24 h at 37 °C.
Larvae were then anesthetized on ice for 5 to 10 min before being placed in individual prefilled 2 mL tubes with 3.0 mm diameter zirconium beads with 1000 μL of PBS. They were then macerated briefly using the BeadBug 6 Homogenizer (Benchmark Scientific, USA) in two 45 s intervals at 4350 rpm. After homogenization, serial dilutions of 1:100, 1:1000, and 1:10,000 were then made for each larva/tube, and 100 μL of the dilution was spread plated onto SDA plates with 50 μg/mL chloramphenicol. Plates were then incubated at 27 °C for 48 h before CFUs were counted.
A one-way ANOVA was conducted to compare the CFU counts for Pt1, Pt2, and both controls. After a significant difference was observed between the groups, a subsequent Tukey’s pairwise test was used to compare the individual test groups with each other.

[19] = extended panel, second batch, ≥80 or ≥50% inhibition
[20] = ranges obtained upon retesting, new batch
[21] = ≥80% inhibition, converted with MW of Table S12
[22] = Candidozyma auris, comparator antifungals, MIC = ≥80% inhibition
[23] = Candidozyma auris, comparator antifungals, ≥80% inhibition, converted with MW of Table S12

Structure (SMILES) | MIC Cryptococcus neoformans ATCC 208821 [2] | MIC50 Cryptococcus neoformans ATCC 208821 [2] | HEK CC50 [3] | CC50 [3] | RBC HC10 (human red blood cells; [20]) | MIC [4, 19] | MIC50 Candida auris CBS10913 ([4]; extended panel) | MIC50 Candida auris CBS12373 ([5]; extended panel) | MIC Cryptococcus deuterogattii ATCC 32609 [8] | toxicity (G. mellonella larvae) | MIC50 Candida glabrata ATCC 90030 [10] | MIC50 Candida tropicalis ATCC 750 [11] | MIC50 Cryptococcus deuterogattii CBS7750 [12] | MIC50 Cryptococcus deuterogattii ATCC 32609 [13] | further results
c1cnc([S][Au][PH](c2ccco2)(c2ccco2)c2ccco2)nc1 [Au1] | 0.098 to 0.195 µM | 0.098 to 0.195 µM | >32 mg/L | 0.1 to 0.6 µM | 90 to 200 µM | 0.098 µM | 0.098 to 0.195 µM | 0.098 to 0.391 µM | 0.098 to 0.391 µM | nontoxic | 0.098 to 0.391 µM | 0.049 to 0.391 µM | 0.024 to 0.098 µM | 0.024 to 0.049 µM | MIC Candida albicans ATCC 90028 [1, 19]: 0.049 to 0.391 µM; MIC50 Candida albicans ATCC 90028 ([1]; extended panel, 50% inhibition, MIC score 2): 0.049 to 0.391 µM; MIC Candida auris CBS12373 [5, 19]: 0.098 to 0.391 µM; MIC Candida glabrata ATCC 90030 [6]: 0.098 to 0.781 µM; MIC Candida tropicalis ATCC 750 [7]: 0.049 to 0.391 µM; MIC Cryptococcus deuterogattii CBS7750 [9]: 0.024 to 0.391 µM
c1ccc([PH]([Au][S]c2ccccn2)(c2ccccc2)c2ccccc2)cc1 [Au2] | 0.024 to 0.195 µM | 0.024 to 0.195 µM | >32 mg/L | 0.8 to 200 µM | > 200 µM | 0.195 µM | 0.098 to 1.56 µM | 0.098 to 0.195 µM | 0.049 to 0.391 µM | showed signs of toxicity; also recorded: toxic at 1 mM | > 200 µM | ≥ 200 µM | 0.049 to 1.56 µM | 0.049 to 0.195 µM | MIC Ab [14]: >32 mg/L; MIC Ec [15]: >32 mg/L; MIC Pa [16]: >32 mg/L; RBC HC10 (human red blood cells; initial CO-ADD screening, 1 h, 10% hemolysis): >32 µg/mL; MIC [5, 19]: 0.195 µM; MIC [6]: >200 µM; MIC [7]: >200 µM; MIC [9]: 0.098 µM
OC(Cn1cncn1)(Cn1cncn1)c1ccc(F)cc1F [Fluconazole, reference compound] | – | – | – | – | – | – | – | – | – | – | – | – | – | – | MIC ([1]; MIC = ≥80% inhibition): 0.004 mg/L; MIC [1, 21]: 0.018 µM; MIC ([2]; MIC = ≥80% inhibition): 2 to 4 mg/L; MIC [2, 21]: 9.25 to 18.5 µM; MIC [4, 22]: ≤ 0.004 mg/L; MIC [4, 23]: ≤ 0.018 µM; MIC [5, 22]: ≤ 0.004 mg/L; MIC [5, 23]: ≤ 0.018 µM; larva survival (C. albicans (ATCC 90028) [17]): significant larva survival; reduction in CFUs (C. albicans (ATCC 90028) [18]): 1.1 log10
